This series can be described thus: in vitro. The note with it: human, hela cells, % viability.

Experimental findings from paper PMC12040169 (PLOS Biology, 2025) are described below.

Consider `COc1cc(-c2cnc(N)c(N3CCC[C@@H]3CO)n2)cc(OC)c1OC` [CBK063478], for which the viability at 28.5 h, 10 µM is 101%. As for `COc1ccccc1-c1cn2ccnc2c(N2CCCC2CO)n1` (centres unmarked) [CBK037266], the viability at 28.5 h, 10 µM came out at 96.5%. Same read-out and setting: with `Cc1c(CN(C)CC(=O)Nc2ccc(Br)cc2Cl)cnn1C` [CBK304214] the figure was 86%; with `CC12CCC(=O)N1CCCN2Cc1cnn(-c2ccc(F)cc2)c1` (centres unmarked) [CBK281819], 94.2%; with `NCCCOc1nc2ccccc2nc1N1CCCC1` [CBK115287], 95.8%. `COc1ccc(C2=NN(c3ccc([N+](=O)[O-])cc3)C(=O)/C2=C\NCCN2CCOCC2)cc1` [CBK264563]: the viability at 28.5 h, 10 µM turned out to be 114%. On the same count and under the same terms, with `COc1ccc(-c2ccc(/C=N/N=C3\NC(=O)C(CC(=O)O)S3)o2)c([N+](=O)[O-])c1` (centres unmarked) [CBK264516] the figure was 102%; with `COc1cc(/C=N/NC(=O)CCN2CCN(C)CC2)cc(OC)c1O` [CBK261500], 100%; with `CC(C)CC(=O)N1C[C@H]2CCCN(Cc3ccccn3)[C@H]2C1` [CBK285269], 86.6%. Take `CC(=O)N1CCn2nc(C(=O)N(CCO)Cc3ccccc3)cc2C1` [CBK306769]: the viability at 28.5 h, 10 µM is 89.3%. For `C[C@H](NC(=O)N1CCN(C(=O)c2c[nH]c3ccccc23)CC1)C(=O)O` [CBK286581], the viability at 28.5 h, 10 µM turned out to be 84.5%. On the same count and under the same terms, to `O=C(O)CCC(=O)Nc1ccc(N2CCN(CCO)CC2)cc1` [CBK078486] belongs 94.5%; to `COc1ccc(C(=O)N2CCN(c3nc4c(s3)c(C)nn4C)CC2)cc1` [CBK307457], 96%. On to `Cc1ccc2nc(-c3ccccn3)cc(C(=O)NCc3ccccn3)c2c1` [CBK267782], for which the viability at 28.5 h, 10 µM turned out to be 86.6%. `Cc1cc(C)c2c(OCC(=O)Nc3nc(C(N)=O)cs3)nn(C)c2n1` [CBK305530]: the viability at 28.5 h, 10 µM came to 83.9%. On the same count and under the same terms, to `O=C(Cc1ccc(F)cc1)Nc1nc(-c2cccs2)cs1` [CBK287736] belongs 82.3%. For the compound `O=C(C1CC1)N1C[C@H]2CCCN(S(=O)(=O)c3cccs3)[C@H]2C1` [CBK282255], the viability at 28.5 h, 10 µM worked out at 105%. Same read-out and setting: to `CCOC(=O)c1c(NC(=O)CN2CCN(c3ccc(F)cc3)CC2)sc2c1CCCC2` [CBK265536] belongs 88.3%; to `O=c1c(O)c(-c2ccc(F)cc2)oc2ccccc12` [CBK288369], 72.4%; to `CC1CN(Cc2nc3c(c(=O)n(C)c(=O)n3C)n2CCCc2ccccc2)CC(C)O1` (centres unmarked) [CBK269349], 91.7%. Turning to `CC(Oc1ccc(Br)cc1)C(=O)Nc1ccc(C(N)=O)cc1` (centres unmarked) [CBK266760], the viability at 28.5 h, 10 µM is 112%. Take `O=C(O)c1ccc(NC(=O)c2cccc(-n3cnnc3)c2)cc1` [CBK270134]: the viability at 28.5 h, 10 µM stood at 104%. On to `O=[N+]([O-])c1ccccc1S(=O)(=O)N1CCN(C2CCCCCC2)CC1` [CBK264171G], for which the viability at 28.5 h, 10 µM was 95.4%. On the same count and under the same terms, to `Cc1cc(C)n(CCCNC(=O)Nc2cccnc2)n1` [CBK304820] belongs 84.6%; to `COc1ccc(-c2ccccc2NS(=O)(=O)c2ccc3c(c2)CCC(=O)N3)cc1` [CBK286370], 96.8%; to `Cc1ccc(/C=N/N=C2/N=C(O)C(CC(=O)Nc3ccccc3C(F)(F)F)S2)o1` (centres unmarked) [CBK263731], 104%. Take `CC1=NN(c2ccccc2)C(=O)/C1=C\c1ccc(Cl)cc1` [CBK067772]: the viability at 28.5 h, 10 µM amounted to 96.7%. For `Cc1c(S(=O)(=O)Nc2nnc(C(F)(F)F)s2)sc2ccc(Cl)cc12` [CBK062018], the viability at 28.5 h, 10 µM is 81.9%. In the case of `O=C(COc1ccc2ccccc2c1)Nc1ccc(S(=O)(=O)N2CCCCC2)cc1` [CBK263765], the viability at 28.5 h, 10 µM amounted to 118%.

In the case of `O=C(CC1S\C(=N/N=C/C=C/c2ccccc2)N=C1O)Nc1ccc(C(=O)O)cc1` (centres unmarked) [CBK263711], the viability at 28.5 h, 10 µM was determined as 101%.

As for `Cc1cc(C[C@@H]2CCC[C@H]2NCc2ccncc2)on1` [CBK284934], the viability at 28.5 h, 10 µM came to 98.6%. Regarding `C=CCOc1ccc(OCCN2CC(C)OC(C)C2)cc1` (centres unmarked) [CBK269646C], the viability at 28.5 h, 10 µM worked out at 112%. As to `CC(=O)Nc1nn(Cc2cc3c(cc2Cl)OCO3)c2ccccc12` [CBK048251], the viability at 28.5 h, 10 µM was 96.5%. In the case of `CCOc1ccc(N(Cc2ccc(C(=O)O)cc2)S(C)(=O)=O)cc1` [CBK287231], the viability at 28.5 h, 10 µM came to 104%. Take `FC(F)(F)Oc1ccc(-c2cncc(N3CCN(c4ccncc4)CC3)n2)cc1` [CBK059230C]: the viability at 28.5 h, 10 µM came to 88.9%. In the case of `NC1=NC(=O)N([C@H]2C[C@@H](O)[C@@H](CO)O2)CN1` [CBK201248], the viability at 28.5 h, 10 µM came to 108%.

Take `O=S(=O)(c1ccc(I)cc1)n1ccc2c(N3CCNCC3)cncc21` [CBK081326C]: the viability at 28.5 h, 10 µM was found to be 84.9%. `CCn1c(=O)n(CC(=O)N2CC(C)CC(C)C2)c2cccnc21` (centres unmarked) [CBK283845]: the viability at 28.5 h, 10 µM is 95.3%. Turning to `Cc1ccc(-c2nnc(CNC(=O)c3cccc(F)c3F)o2)s1` [CBK284641], the viability at 28.5 h, 10 µM was 91.1%. Still for that read-out and setting: with `O=C(O)c1ccc(Cl)c(S(=O)(=O)Nc2ccc(I)cc2)c1` [CBK296132] the figure was 83.2%; with `NCCNc1ccc([N+](=O)[O-])c(NCc2ccccc2)c1` [CBK262757C], 83.7%; with `CCCCOC(=O)CCn1c(=S)oc2ccccc21` [CBK019181], 87.9%.

On to `OC1CC(c2cc(NCCc3nc4ccccc4o3)ncn2)C1` (centres unmarked) [CBK306573], for which the viability at 28.5 h, 10 µM came out at 99.9%. The same measure, in the same setting: to `Oc1ccc2ccccc2c1/C=N/Nc1nc(NCc2ccccc2)nc(N2CCOCC2)n1` [CBK261233] belongs 93.8%.

With `O=C1NC2(CCCCCC2)C(=O)N1Cc1coc(-c2cccs2)n1` [CBK305858], the viability at 28.5 h, 10 µM is 94.2%.

Take `Cc1cc(S(=O)(=O)Nc2ccccc2-c2nnnn2C(C)C)c(C)o1` [CBK306259]: the viability at 28.5 h, 10 µM was 111%. Take `CC1NC(C(=O)O)Cc2c1[nH]c1ccccc21` (centres unmarked) [CBK218664]: the viability at 28.5 h, 10 µM came to 102%. As to `CN(C)CCN/C=C1/C(=O)NC(=S)N(c2ccccc2Cl)C1=O` [CBK261826], the viability at 28.5 h, 10 µM (bulk resorufin, single well) amounted to 86.4%. Consider `Cc1cc(C)c(OCC(=O)Nc2ccc3oc(-c4cncc(Br)c4)nc3c2)c(Cl)c1` [CBK266634], for which the viability at 28.5 h, 10 µM came out at 100%. Take `CC(=O)Nc1cccc(Oc2cnc(-c3ccc(OC(F)(F)F)cc3)c(N)n2)c1` [CBK145119]: the viability at 28.5 h, 10 µM was 91.9%. In the case of `COc1ccc(C(=O)Nc2c(Cl)ccc3nsnc23)cc1` [CBK270252], the viability at 28.5 h, 10 µM came out at 87.2%. Take `O=S(=O)(NC1CCCCC1)c1ccc(S(=O)(=O)N2CCOCC2)cc1` [CBK269618]: the viability at 28.5 h, 10 µM is 102%. For the compound `CC1CN(c2cc(CO)c(F)cn2)CC2(CCOC2C)O1` (centres unmarked) [CBK304754], the viability at 28.5 h, 10 µM turned out to be 101%. The same measure, in the same setting: to `CCCCS(=O)(=O)N1CCN(CCc2ccccc2)CC1` [CBK270316] belongs 87.3%; to `Clc1cccc(-c2cccc(Nc3cccnc3)n2)c1Cl` [CBK037800], 102%; to `COc1ccc(Nc2cc(Cl)ccc2C(=O)NC(C)(C)CN2CCOCC2)cn1` [CBK107436], 97.1%. On to `Cc1scc(C(=O)NCc2ccccn2)c1-c1ccccc1` [CBK268107], for which the viability at 28.5 h, 10 µM was 89%.

Take `Cc1[nH]c2ccccc2c1/C=N/NC(=O)C1COc2ccccc2O1` (centres unmarked) [CBK261482]: the viability at 28.5 h, 10 µM amounted to 90.9%. Turning to `c1ccc(COc2ccc(N3CCNCC3)cc2)cc1` [CBK012776C], the viability at 28.5 h, 10 µM turned out to be 83.5%. Regarding `Cc1c(Cl)c(C(F)(F)F)nn1CCCNC(=S)Nc1ccc(S(N)(=O)=O)cc1` [CBK267113], the viability at 28.5 h, 10 µM was determined as 100%.

For `CNC(=O)C1(Cc2ccc(-c3ccccc3)cc2)CCN(C(=O)c2ccccc2)CC1` [CBK285761], the viability at 28.5 h, 10 µM was found to be 96.5%.

Take `COc1ccc(C(=O)Nc2ccc3oc(-c4cccc(C)c4)nc3c2)cc1Br` [CBK261944]: the viability at 28.5 h, 10 µM came to 100%.

Turning to `Cc1ccnc(SCCn2c(N(C)Cc3ccccc3)nc3c2c(=O)n(C)c(=O)n3C)n1` [CBK269394], the viability at 28.5 h, 10 µM is 98.9%.

For the compound `COc1cc2c(cc1OC)CN(CC1CCCCC1)CC2` [CBK138321], the viability at 28.5 h, 10 µM stood at 101%.

With `C#CCNS(=O)(=O)c1cccc(C(=O)N2CCOC(CC(=O)OC)C2)c1` (centres unmarked) [CBK306138], the viability at 28.5 h, 10 µM worked out at 90.8%. For the compound `O=C(O)c1ccccc1C(=O)Nc1cccc(-c2noc(-c3cccc(F)c3)n2)c1` [CBK299813], the viability at 28.5 h, 10 µM came out at 92%. The same measure, in the same setting: with `Cc1nn(Cc2cccc3ccccc23)c(C)c1NC(=O)c1ccncc1` [CBK269990] the figure was 93.4%; with `Cc1cc(C)cc(-c2ccc(CC3(C(=O)NC(C)CO)CCOCC3)cc2)c1` (centres unmarked) [CBK286523], 110%.

Consider `Oc1cccc(-c2nccnc2NCc2cccc(C(F)(F)F)c2)c1` [CBK037014], for which the viability at 28.5 h, 10 µM was found to be 86.9%. Regarding `O=S(=O)(NC1CCN(Cc2ccccc2)CC1)c1cccc2nonc12` [CBK062030], the viability at 28.5 h, 10 µM was 94.6%.

On to `Cc1noc(C)c1CN(C)C(=O)NC1CCCc2c1cnn2CCO` (centres unmarked) [CBK306283], for which the viability at 28.5 h, 10 µM is 92.5%. On the same count and under the same terms, to `O=C(CSc1nc[nH]n1)Nc1ccc(-c2nc3ccccc3s2)cc1` [CBK267146] belongs 81.9%; to `COc1ccc2[nH]c(SCC(=O)Nc3ccc(Br)cc3)nc2c1` [CBK263447], 91%.

Regarding `COC(=O)[C@H]1CCc2ccccc2N1C(=O)C1CCC1` [CBK285478], the viability at 28.5 h, 10 µM is 100%. Take `CN(C)c1ccc2cccc(O)c2n1` [CBK149729]: the viability at 28.5 h, 10 µM worked out at 93.9%.

For the compound `CCc1ccccc1NC(=O)Cc1ccc(OC)cc1` [CBK087898], the viability at 28.5 h, 10 µM came out at 85.7%.

As to `O=C(CSc1nc2ccccc2[nH]1)Nc1cccc(C(=O)O)c1` [CBK263225], the viability at 28.5 h, 10 µM stood at 105%. Turning to `c1ccc2c(c1)CCCN2CCc1c[nH]c2ccccc12` [CBK138330], the viability at 28.5 h, 10 µM amounted to 97.3%. Take `Cn1c(=O)[nH]c(=O)c2cnc(-c3ccc(Cl)cc3)nc21` [CBK291208]: the viability at 28.5 h, 10 µM amounted to 95.6%. For `Cc1cc(Cl)c(S(=O)(=O)Nc2ccc(I)cc2)cc1OCC(N)=O` [CBK266418], the viability at 28.5 h, 10 µM came to 105%.
